Laboratory results: patent publication US20230358677A1, “Reversible Excited-State Photoacids and Photobases as Dynamic Fluorescence Sensors of Protonic Species” (California Institute of Technology, priority 2022, published 2023)
Each block holds one molecule with its values, some of them ahead of it.

Tests used:
[1] = Acid-base titrations of NS—NH2 in the presence of proton-accepting quenchers (modified Stern-Volmer, Equation 7); details: for pKa,BH+ (Equation 7), value after the slash: equals titration-curve values of b153; for k+q,corr: corrected rate constant, ESPT from NS—NH2* to the proton acceptor; for k+q: direct excited-state proton transfer from NS—NH2* to the proton acceptor; for KSV,quencher (Equation 7) / KSV,quencher (traditional linearized Stern-Volmer): quenching of NS—NH2*
Text: Assuming that photoluminescence quenching occurs by ESPT from NS—NH2* to OH^−(aq), the data support that when aOH− is small (i.e. at pH less than about 12), ESPT can be quite slow compared to the excited-state lifetime of NS—NH2*, due to mass action (FIG. 2B). The non-unity quantum yield for ESPT in weakly alkaline aqueous solutions afforded us an opportunity to evaluate a series of aqueous proton-accepting quenchers (glycine (Gly(aq)), proline (Pro(aq)), and trifluoroethanol (TFE(aq))) for their ability to undergo ESPT with NS—NH2*. In order to clearly observe ESPT to a species other than OH^−(aq), added proton-accepting quenchers had to be more basic (ΔG^o<0), or slightly more acidic (ΔG^o>0), than NS—NH2*, and less basic than OH^−(aq). […] As pH values approach and pass the pKa of the proton-accepting quencher, the rate of ESPT slows from a decrease in the concentration of proton-accepting quencher due to its protonation. This is supported by observations from analogous experiments performed using different concentrations of quencher. Best fits of measured photoluminescence spectroscopy data to a modified Stern-Volmer equation for a two-quencher system, including both OH^−(aq) and proton-accepting quencher, provided bimolecular rate constants for deprotonation of the photoacid by each quencher,
where KSV,OH−=K*^−1b and KSV,quencher=k+q,quencherτo,PAH* are the dynamic quenching constants for excited-state proton transfer to OH^−(aq) and proton-accepting quencher, respectively, k+q,quencher is the bimolecular rate constant (M^−1 s^−1) for ESPT quenching by the proton-accepting quencher, and the sum of the activities of B and BH^+ is approximated as the total concentration of the proton-accepting quencher. While the pKa of the proton-accepting quencher is an adjustable parameter during best fitting, extracted pKa values are close to pKa values obtained from the acid-base titration curves of the proton-accepting quenchers. Changing the proton-accepting quencher to one with a smaller pKa value results in a slower non-diffusion-limited rate constant for ESPT with NS—NH2*. The observation of ESPT directly from NS—NH2* to each of two different amino acids, Gly and Pro, is notable, and may have important implications for biological systems where direct protonation of proteins can induce cellular responses.
Table 2 lists driving-force-dependent rate constants for direct excited-state proton transfer from NS—NH2* to various proton-accepting quenchers.
Several embodiments use the steady-state ultraviolet-visible electronic absorption and photoluminescence spectroscopy for characterization. Equal amounts of aromatic amine photoacids are portioned into five separate 100 mL volumetric flasks. For the non-proton-accepting quencher experiments, the five flasks are filled to the volumetric marker with aqueous solutions of 1 M HCl, 1 M KOH, 2 M KOH, 3 M KOH, and 4 M KOH. The aqueous 1 M KOH solution is titrated with the aqueous 1 M HCl solution to reach the desired pH values from 14 to 6, and the H^+ activities are measured using a pH meter (pH/Ion 510). […] Electronic absorption spectra and photoluminescence spectra are acquired using absorbance and fluorescence spectrometer(s), using a square-bottom quartz cuvette (1 cm path length) at room temperature. Electronic absorption spectra are baselined on a spectrum of deionized water and were corrected for scattering of light. Photoluminescence spectra are recorded by exciting with 310 nm light, slit widths for the excitation and emission monochromators were set to 5 nm, and the PMT detector voltage is set to 600 V. Photoluminescence spectra are corrected for changes in solution refractive index, inner filter effects and the wavelength-dependent correction factor of the fluorimeter.

[2] = 1 M aqueous solution titrated with 4 M KOH
[3] = proton acceptor, aqueous; cited from earlier work
[4] = cited from earlier work
[5] = Stern-Volmer analysis of quenching of HPhenDS by proton acceptors; format: physicochemical; details: quenching of aqueous HPhenDS, constant ionic strength
Description: ESPT availability and ESPT to water curves are calculated from steady-state absorption and photoluminescence data for 15 μM HPhenDS across the pH window indicated at constant ionic strength (except for pH values below 0). Concentrations of all buffers were simulated to be 1 M total salt added. Ability to sense is predicted by estimating total concentration at a given pH value based on the pKa value of the buffer and fit to a Henderson-Hasselbalch-type equation. The resultant concentration is then multiplied by the ESPT availability of HPhenDS at each pH value.
FIGS. 21A and 21B illustrate Stern-Volmer analysis for quenching constant Ksv in accordance with an embodiment.

[6] = conjugate acid of proton acceptor

Molecule: Trifluoroethanol
bimolecular rate constant, deprotonation of NS—NH2* by the quencher ([1]; 1 M total quencher): (11±2)×10^8 M^−1 s^−1
pKa,BH+ (Equation 7), value before the slash [1, 6]: 12.4
pKa,BH+ (Equation 7), value after the slash [1, 6]: 12.6
k+q,corr [1]: 58.7 ± 11.5 10^8 M^−1 s^−1
k+q [1]: 11.2 ± 2.2 10^8 M^−1 s^−1
KSV,quencher (Equation 7) ([1]; 1 M total quencher): 5 ± 1 M⁻¹
KSV,quencher (traditional linearized Stern-Volmer) ([1]; 1 M total quencher): 6.2 ± 0.1 M⁻¹
pKa from acid-base titration curve [2]: 12.6
Diffusion Coefficient [3]: 6.00 10^−6 cm^2/s
pKa, literature value [4]: 12.4

Molecule: Hydroxide
pKa,BH+ (Equation 7), value before the slash [1, 6]: 14/—
k+q,corr [1]: 100 ± 3 10^8 M^−1 s^−1
k+q [1]: 100 ± 3 10^8 M^−1 s^−1
Diffusion Coefficient [3]: 52.70 10^−6 cm^2/s

Molecule: CC(=O)O [Acetate]
KSV [5]: about 0.1548 M^−1

Molecule: O=CO [Formate]
KSV [5]: about 0.4623 M^−1

Molecule: O=C([O-])[O-].[Na+].[Na+] [Carbonate]
KSV [5]: about 1.02 M^−1

Molecule: O=C(O)O [Bicarbonate]
KSV [5]: about 0.6051 M^−1

pKa,BH+ (Equation 7), value before the slash [1]: 11.4/—
Molecule: Phosphate
bimolecular rate constant, deprotonation of NS—NH2* by the quencher ([1]; 0.17 M total phosphate): (11±2)×10^8 M^−1 s^−1
k+q,corr [1]: 22.6 ± 3.8 10^8 M^−1 s^−1
k+q [1]: 5.4 ± 0.9 10^8 M^−1 s^−1
KSV,quencher (Equation 7) ([1]; 0.17 M total phosphate): 2.2 ± 0.3 M⁻¹
KSV,quencher (traditional linearized Stern-Volmer) ([1]; 0.17 M total phosphate): 3.4 ± 0.1 M⁻¹
Diffusion Coefficient [3]: 8.79 10^−6 cm^2/s

Molecule: NCC(=O)O [Glycine]
bimolecular rate constant, deprotonation of NS—NH2* by the quencher ([1]; 1 M total quencher): (0.39±0.02)×10^8 M^−1 s^−1
bimolecular rate constant, deprotonation of NS—NH2* by the quencher ([1]; 2 M total glycine): (0.90±0.04)×10^8 M^−1 s^−1
pKa,BH+ (Equation 7), value before the slash [1, 6]: 9.7
pKa,BH+ (Equation 7), value after the slash [1, 6]: 9.9
k+q,corr [1]: 1.44 ± 0.07 10^8 M^−1 s^−1
k+q [1]: 0.39 ± 0.02 10^8 M^−1 s^−1
KSV,quencher (Equation 7) ([1]; 1 M total quencher): 0.18 ± 0.01 M⁻¹
KSV,quencher (traditional linearized Stern-Volmer) ([1]; 1 M total quencher): 0.19 ± 0.01 M⁻¹
KSV,quencher (Equation 7) ([1]; 2 M total glycine): 0.20 ± 0.01 M⁻¹
pKa from acid-base titration curve [2]: 9.9
Diffusion Coefficient [3]: 10.60 10^−6 cm^2/s
